Patent publication US6737246B2, “Method for detecting protein inhibitors and ligands of medical value” (Aventis Pharma Deutschland, GmbH, priority 2000, dated 2004)

Target: T1, MMP-13 (Homo sapiens, UniProt P45452)
T1 construct: purchased Invitek GmbH, Berlin, Germany HM 13110010
Assay: MMP-13 marker substrate conversion (fluorescence) in the presence of collagen II and test substance
Format: biochemical
Conditions: control without test substance 49%
Procedure: MMP-13 was obtained as a commercial product (Cat. No. HM 13110010) from Invitek GmbH, Berlin, Germany, activated according to the manufacturer's instruction, and diluted to 10 μg/10 ml with TCB buffer. TCB buffer was prepared by dissolving 10 mM tris(hydroxymethyl)aminomethane (Sigma-Aldrich Chemie GmbH, Deisenhofen, Germany) in water and adjusting the pH to 7.5 with HCl. 100 mM CaCl2×2H2O (Merck KGaA, Darmstadt, Germany) and 0.05% of Brij 35 solution, 30% (w/v) (Sigma-Aldrich Chemie GmbH, Deisenhofen, Deutschland), are added to said solution.
A solution of 10 mmol/l (7-methoxycoumarin-4-yl )acetyl-Pro-Leu-Gly-Leu-(3-[2,4-dinitrophenyl]-L-2,3-diaminopropionyl)-Ala-Arg-[…] (SEQ ID NO: 1). (Bachem Biochemica GmbH, Heidelberg, Germany) in dimethyl sulfoxide (DMSO) (Riedel-de Haen AG, Seelze, Germany) was diluted 1:40 (v/v) with water.
10 mg of human […] (Biocon, Potsdam, Germany) were dissolved in 2400 μl of 10 mmol/l acetic acid (72 hours at 4° C.), and then 1300 μl of a sodium bicarbonate solution (250 mmol/l) CaCl2×2H2O (Merck KGaA, Darmstadt, Germany) were added dropwise.
Test substance (suspected inhibitor or ligand), typically dissolved in water at an appropriate concentration relative to the amount of enzyme used.
The components A) (25 μl), B) (5 μl), C) (10 μl) and D) (10 μl) were mixed in a total volume of 50 μl, and fluorescence was measured in a commercial spectrofluorimeter after 15 minutes (excitation at 330 nm, emission at 390 nm, Spectrafluor plus, Tecan Deutschland GmbH, Crailsheim, Germany).
Enzyme and inhibitor were preincubated at room temperature for 15 min. The reaction was started by adding 5 μl of marker substrate solution (component B at 25 μM).
The fluorescence in example 1 was set at 100%, and the measured values of the other examples are based on this value.

[1] = 200 μmol/l test substance, components A (MMP-13), B (marker substrate), C (collagen II) present

protamine sulfate
Measured value (fluorescence, example 1 set at 100%) (60 μg/well (60 μg/50 μl) test substance, components A, B, C present): 73%

Fc1ccc(/C(=C\CCN2CCC(=C(c3ccccc3)c3ccccc3)CC2)c2ccccc2)cc1 [substance (I), 4-(diphenylmethylene)-1-[4-(p-fluorophenyl)-4-phenyl-3-butenyl]piperidine]
Measured value (fluorescence, example 1 set at 100%) [1]: 59%
Measured value (fluorescence, example 1 set at 100%) (200 μmol/l test substance, components A (MMP-13), B (marker substrate), C (collagen II) present, listed as (I)): 59%

C[C@H]1c2cccc(O)c2C(=O)C2=C(O)[C@]3(O)C(=O)C(C(N)=O)=C(O)[C@@H](N(C)C)[C@@H]3[C@@H](O)[C@@H]21 [doxycycline]
Measured value (fluorescence, example 1 set at 100%) [1]: 0%
